Publication PMC4586642, “CYP450 Enzyme-Mediated Metabolism of TCAS and Its Inhibitory and Induced Effects on Metabolized Enzymes in Vitro” (International Journal of Environmental Research and Public …, 2015)

Experiments:
[1] = tested on: T1, CYP2B6 (2B6); experiment: Inhibition of isoform-selective probe metabolism (phenacetin 1A2, tolbutamide 2C9, bupropion 2B6, dextromethorphan 2D6, midazolam 3A) in rat liver microsomes (0.4 mg/mL) with an NADPH-generating system, 0.5-500 uM TCAS, 30 min at 37 °C, LC-MS/MS readout.; assay type: biochemical; settings: SD, n = 3
T1 construct: native enzyme in rat liver microsomes (RLMs)
Procedure: (§1) The inhibitory effects of TCAS on the activities of CYP1A2, CYP2C9, CYP2D6, CYP2B6 and CYP3A were tested in RLMs and HLMs using probes selective for each isoform. The reaction probes used were as follows: phenacetin for CYP1A2; tolbutamide for CYP2C9; dextromethorphan for CYP2D6; midazolam for CYP3A and bupropion for CYP2B6. Incubation conditions specific to each isoform were linear with time, substrate, and protein concentrations as detailed in our previous studies. Isoform-specific substrate probes were incubated in duplicate at 37 °C with RLMs and HLMs and an NADPH-generating system in the absence (control) or presence of various concentrations (0.5, 1.5, 5, 15, 50, 100, and 500 µM) of TCAS. A 5-min pre-incubation was carried out before the reaction was initiated by adding 0.4 mg/mL of RLMs and HLMs. After incubation for 30 min, the reaction was terminated with 400 μL of ice-cold stop solution.
(§2) Results were analyzed by a two-factor ANOVA. A p < 0.05 was considered statistically significant.

[2] = tested on: T2, CYP2C9 (2C9); experiment: as above; assay type: biochemical; settings: SD, n = 3
T2 construct: native enzyme in rat liver microsomes (RLMs)
Procedure: as §1, §2

[3] = tested on: T3, CYP2D6 (2D6); experiment: as above; assay type: biochemical; settings: SD, n = 3
T3 construct: native enzyme in rat liver microsomes (RLMs)
Procedure: as §1, §2

[4] = tested on: T4, CYP3A4 (3A4); experiment: as above; assay type: biochemical; settings: SD, n = 3
T4 construct: native enzyme in rat liver microsomes (RLMs)
Procedure: as §1, §2

[5] = target: CYP2C9 (Homo sapiens, UniProt P11712); experiment: in vitro; settings: microsomes, pH 7.4
Chain of CYP2C9 (P11712 whole entry): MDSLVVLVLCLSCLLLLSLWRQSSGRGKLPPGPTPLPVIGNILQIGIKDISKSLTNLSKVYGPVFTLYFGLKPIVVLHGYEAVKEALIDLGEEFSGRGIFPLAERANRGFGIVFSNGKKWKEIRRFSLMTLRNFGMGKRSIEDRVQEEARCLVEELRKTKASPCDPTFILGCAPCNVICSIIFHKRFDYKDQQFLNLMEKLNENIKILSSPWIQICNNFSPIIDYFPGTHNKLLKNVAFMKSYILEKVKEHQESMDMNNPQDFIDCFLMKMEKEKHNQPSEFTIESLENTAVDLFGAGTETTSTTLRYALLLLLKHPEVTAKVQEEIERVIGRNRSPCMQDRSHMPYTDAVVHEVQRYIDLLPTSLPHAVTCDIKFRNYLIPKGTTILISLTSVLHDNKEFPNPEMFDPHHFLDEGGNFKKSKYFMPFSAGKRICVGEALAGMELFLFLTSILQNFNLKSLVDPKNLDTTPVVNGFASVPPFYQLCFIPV
Procedure: (§5) Inhibitor stock solutions prepared in appropriate solvents accounted for 0.4% organic solvent in the final incubation for 30 min at 37 °C with gentle shaking before stopping with 400 μL ice-cold stop solution (1:1 (v:v) mixture of acetonitrile and methanol) containing 50 ng/mL tolbutamide (IS). After vortexing for 30 seconds, and centrifugation at 16,000 g for 10 min, the supernatant was collected and analyzed by LC-MS/MS as described above. […] All incubations were conducted in triplicate.

[6] = tested on: CYP3A; experiment: Induction of CYP3A activity in sandwich-cultured rat hepatocytes (midazolam probe); settings: 1 mM, 72 h
Procedure: (§3) Rat primary hepatocytes were prepared according to a modified, two-step collagenase perfusion method. Viability of hepatocyte was determined by Trypan Blue exclusion. Only those hepatocyte preparations with viability greater than 90% were used for further studies. Hepatocyte suspensions were prepared with DMEM-F12 containing 10% FBS, 100 U/mL penicillin, 100 µg/mL streptomycin, 1 µM DEX and 4 µg/mL insulin. Then, hepatocyte suspensions were seeded into the pre-coated wells at a density of 1 × 10^6 cells/well in 24-well plates. […] Medium was changed daily. On day 4, the cultured hepatocytes were washed twice with Hank’s balanced salt solution containing 25 mM HEPES and incubated with 0.5 mL of the same buffer containing 50 μM phenacetin and 5 μM midazolam at 37 °C for 1h. At the end of incubation, 0.5 mL aliquots of the media were transferred to 1.5-mL test tubes and stored at −20 °C until analysis. All incubations were conducted in triplicate.
(§4) Results were analyzed by a two-factor ANOVA. A p < 0.05 was considered statistically significant. […] Microsoft Excel (Microsoft, Redmond, WA, USA) was used to calculate IC50 estimates by linear transformation of the raw data. The data were corrected for both background and control activities.

[7] = target: CYP1A2 (Homo sapiens, UniProt P05177); experiment: TCAS incubation with human liver microsomes plus CYP1A2-selective inhibitor; settings: pH 7.4, probe TCAS (100 µM)
Chain of CYP1A2 (P05177 whole entry): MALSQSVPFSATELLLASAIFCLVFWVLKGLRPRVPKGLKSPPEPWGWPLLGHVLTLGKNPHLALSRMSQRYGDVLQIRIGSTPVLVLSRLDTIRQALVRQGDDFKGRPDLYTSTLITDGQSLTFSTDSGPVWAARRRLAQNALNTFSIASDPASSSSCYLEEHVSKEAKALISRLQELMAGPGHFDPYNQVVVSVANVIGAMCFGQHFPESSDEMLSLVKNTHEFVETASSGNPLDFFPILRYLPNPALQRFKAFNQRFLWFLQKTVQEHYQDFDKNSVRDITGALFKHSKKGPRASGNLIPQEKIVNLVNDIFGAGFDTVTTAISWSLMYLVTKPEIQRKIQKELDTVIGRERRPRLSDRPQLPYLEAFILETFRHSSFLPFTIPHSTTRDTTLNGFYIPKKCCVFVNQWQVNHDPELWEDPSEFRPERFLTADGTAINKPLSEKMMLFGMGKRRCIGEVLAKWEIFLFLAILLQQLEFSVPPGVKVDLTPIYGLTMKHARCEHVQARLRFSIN
Procedure: as §5

[8] = tested on: CYP1A; experiment: Induction of CYP1A activity in sandwich-cultured rat hepatocytes (phenacetin probe); settings: 2.5 µM, 72 h
Procedure: as §3, §4

## O=S(=O)(O)c1cc2c(O)c(c1)Sc1cc(S(=O)(=O)O)cc(c1O)Sc1cc(S(=O)(=O)O)cc(c1O)Sc1cc(S(=O)(=O)O)cc(c1O)S2 [TCAS, Thiacalix[4]arene tetrasulfonate]
[1]
  IC50: 1700 ± 103 µM
[2]
  IC50: 383 ± 23.5 µM
[3]
  IC50: 196 ± 17.6 µM
[4]
  IC50: 2420 ± 235 µM

## Nc1ccc(S(=O)(=O)Nc2ccnn2-c2ccccc2)cc1 [sulfaphenazole]
[5]
  inhibition at 30 min, 60 µM: 51.7%

## CCC1(c2ccccc2)C(=O)NC(=O)NC1=O [PB, phenobarbital]
[6]
  mean induction of CYP3A activity compared with control cells: 5.1 fold

## O=c1cc(-c2ccccc2)oc2c1ccc1ccccc12 [α-Naphthoflavone]
[7]
  inhibition at 30 min, 6 µM: 54.9%

## Cc1ccc2cc3c(ccc4ccccc43)c3c2c1CC3 [3-MC, 3-methylcholanthrene]
[8]
  mean induction of CYP1A activity compared with control cells: 23.8 fold
